In the supplement of paper PMC11451515:

Key:
Settings in all cases: 48 h
[1] = tested on: NOMO1; assay: cell viability relative to DMSO control; higher = less cytotoxic
Outline: (§1)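 NOMO1, SEM and P12-Ichikawa leukemia cells spent at least four passages adapting to each medium before use. They were seeded at 500 cells/well (NOMO1, SEM) or 1000 cells/well (P12-Ichikawa) in 5 μl in 1536-well plates and pin-dosed with library compounds in DMSO at 11 threefold steps from 47 μM down to 0.79 nM. After 48 h at 37°C, CellTiter-Glo One luminescence was read. Viability is reported as a percentage of the DMSO wells on each plate, with cell-free wells as background.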

[2] = tested on: P12-Ichikawa; assay: as above
Outline: as §1

[3] = tested on: SEM cells; assay: as above
Outline: as §1

[4] = tested on: NOMO1; assay: AUC of viability dose-response curve (% viability x log10 dose units); higher = less sensitive
Outline: (§2)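 Viability of medium-adapted leukemia cells was measured by CellTiter-Glo One luminescence after 48 h at 37°C with library compounds in DMSO. Doses were 11 threefold steps from 47 μM to 0.79 nM, in 1536-well plates at 500 or 1000 cells/well. Signals were normalised per plate to DMSO and cell-free wells and fitted with a four-parameter log-logistic model on log10 dose. Area under the curve was integrated by trapezoidal rule, with curves exceeding full viability scaled and failed quality-control curves removed.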

[5] = tested on: P12-Ichikawa; assay: as above
Outline: as §2

CNC(=O)Nc1ccc(-c2nc(N3CC4CCC(C3)O4)c3cnn(C4CCC5(CC4)OCCO5)c3n2)cc1
cell viability [%]
Settings	[1]	[2]	[3]
HPLM + 10% dialyzed FBS, 0.000781 µM	101	107	109
HPLM + 10% dialyzed FBS, 0.00234 µM	88.6	106	106
HPLM + 10% dialyzed FBS, 0.00702 µM	97.2	95.7	97.8
HPLM + 10% dialyzed FBS, 0.0211 µM	86.1	92.5	83.9
HPLM + 10% dialyzed FBS, 0.0632 µM	73	95.4	73.8
HPLM + 10% dialyzed FBS, 0.19 µM	75.9	82.7	53.6
HPLM + 10% dialyzed FBS, 0.569 µM	70.4	86.1	58.1
HPLM + 10% dialyzed FBS, 1.71 µM	63.8	76.7	53
HPLM + 10% dialyzed FBS, 5.12 µM	63.3	74.2	45.9
HPLM + 10% dialyzed FBS, 15.4 µM	57.2	74.9	34.3
HPLM + 10% dialyzed FBS, 46.1 µM	51.6	72.5	36.9
RPMI 5 mM glucose + 10% FBS, 0.000781 µM	108	96.9	76.6
RPMI 5 mM glucose + 10% FBS, 0.00234 µM	115	84.1	77.9
RPMI 5 mM glucose + 10% FBS, 0.00702 µM	118	75.8	65.6
RPMI 5 mM glucose + 10% FBS, 0.0211 µM	99.3	75.5	51
RPMI 5 mM glucose + 10% FBS, 0.0632 µM	91.4	69.8	43.2
RPMI 5 mM glucose + 10% FBS, 0.19 µM	81.1	65.8	36.8
RPMI 5 mM glucose + 10% FBS, 0.569 µM	74.7	64.2	40.1
RPMI 5 mM glucose + 10% FBS, 1.71 µM	73	60.8	34
RPMI 5 mM glucose + 10% FBS, 5.12 µM	72.2	57.1	25.3
RPMI 5 mM glucose + 10% FBS, 15.4 µM	65.1	49.6	22.9
RPMI 5 mM glucose + 10% FBS, 46.1 µM	69.8	53	14.5
RPMI 5 mM glucose + 10% dialyzed FBS, 0.000781 µM	105	106	105
RPMI 5 mM glucose + 10% dialyzed FBS, 0.00234 µM	101	98	106
RPMI 5 mM glucose + 10% dialyzed FBS, 0.00702 µM	84.3	91.1	88.7
RPMI 5 mM glucose + 10% dialyzed FBS, 0.0211 µM	79.3	82.1	80.7
RPMI 5 mM glucose + 10% dialyzed FBS, 0.0632 µM	77.6	81.8	71.6
RPMI 5 mM glucose + 10% dialyzed FBS, 0.19 µM	68.5	70.5	56.2
RPMI 5 mM glucose + 10% dialyzed FBS, 0.569 µM	71.5	67.4	59.4
RPMI 5 mM glucose + 10% dialyzed FBS, 1.71 µM	62	65.2	53.9
RPMI 5 mM glucose + 10% dialyzed FBS, 5.12 µM	62	56.8	39.6
RPMI 5 mM glucose + 10% dialyzed FBS, 15.4 µM	55.1	44.8	31.3
RPMI 5 mM glucose + 10% dialyzed FBS, 46.1 µM	52.4	50.9	41.4

AUC of viability dose-response curve
Settings	HPLM + 10% dialyzed FBS	RPMI 5 mM glucose + 10% FBS	RPMI 5 mM glucose + 10% dialyzed FBS
[4]	359	367	338
[5]	389	324	336
